Source: patent publication US20120196899A1, “METHODS AND PRODUCTS FOR TREATING INFLAMMATION” (Rock Creek Pharmaceuticals, Inc., priority 2010, published 2012)

Biological target: T1, nAChR α7 (Homo sapiens, UniProt P36544)
T1 construct: host or cells: CHO cells
Assay: cell-based
Details: with 300 μM Ach + 10 μM PNU-120596, 10 μM MLA = full inhibition, read-out: Normalized % Inhibition

T1 sequence (P36544 23-502): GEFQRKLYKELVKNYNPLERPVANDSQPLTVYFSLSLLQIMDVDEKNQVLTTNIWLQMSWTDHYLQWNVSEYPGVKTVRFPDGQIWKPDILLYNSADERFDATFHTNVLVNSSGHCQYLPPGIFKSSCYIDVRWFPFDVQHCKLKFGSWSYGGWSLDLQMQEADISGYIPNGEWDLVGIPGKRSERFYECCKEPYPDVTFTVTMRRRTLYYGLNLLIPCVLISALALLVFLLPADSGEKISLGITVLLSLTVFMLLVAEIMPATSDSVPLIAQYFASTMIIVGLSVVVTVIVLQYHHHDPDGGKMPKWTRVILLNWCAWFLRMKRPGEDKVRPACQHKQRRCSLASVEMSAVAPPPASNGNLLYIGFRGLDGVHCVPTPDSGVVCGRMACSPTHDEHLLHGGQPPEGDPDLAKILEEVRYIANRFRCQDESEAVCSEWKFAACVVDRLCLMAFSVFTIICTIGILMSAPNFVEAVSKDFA

C1=CCC(c2cccnc2)NC1 (racemic) [Anatabine (racemate)]
inhibition at 0.3 µM (test conc 0.3 μM): 22.4%
inhibition at 1 µM (test conc 1 μM): 22.2%
inhibition at 3 µM (test conc 3 μM): 45.2%
inhibition at 10 µM (test conc 10 μM): 33.4%
inhibition at 30 µM (test conc 30 μM): 22.9%
inhibition at 100 µM (test conc 100 μM): 22%
inhibition at 300 µM (test conc 300 μM): 7.51%
inhibition at 1000 µM (test conc 1000 μM): 10.8%
